In paper PMC9455983 (International Journal of Molecular Sciences, 2022):
Where two headings read alike, the source gives them in different places.

Experiments:
[1] = biological target: T1, kappa-opioid receptor (KOR) (Cavia porcellus, UniProt P41144); assay: KOR radioligand competition binding assay ([3H]U69,593); design: species or system guinea pig; conditions: Kappa screening results
T1 construct: Guinea pig cortices and cerebella were homogenized using 50 mM Tris, pH 7.4; from tissue; host or cells: guinea pig cortex and cerebellum membranes
Protocol: KOR binding assay: Guinea pig cortices and cerebella were homogenized using 50 mM Tris, pH 7.4, 10 mM MgCl2-6H2O, […] centrifuged and incubated as above. Each assay tube contained 2 nM [^3H]U69,593. Assay tubes were incubated for 2 h at 25 °C. Unlabeled U50,488 was used as a competitor to generate a standard curve and determine nonspecific binding.
(§1) All three binding assays were terminated by filtration through GF/B filters, soaked in 5 mg/mL bovine serum albumin, 50 mM Tris, pH 7.4, on a Tomtec Mach II Harvester 96. The filters were subsequently washed with 6 mL of assay buffer. Bound radioactivity was counted on a Wallac Betaplate Liquid Scintillation Counter. Experiments were conducted using two replicates and repeated twice. Values in Scheme 2 represent the mean ± SD of two experiments with two replicates in each test.

[2] = biological target: T2, mu-opioid receptor (MOR) (Rattus norvegicus, UniProt P33535); assay: MOR radioligand competition binding assay ([3H]-DAMGO); conditions: Mu screening results
T2 construct: Rat cortices were homogenized using 50 mM Tris, pH 7.4, and centrifuged at 16,500 rpm for 10 min; from tissue; host or cells: rat cortex membranes
Protocol: MOR binding assay: Rat cortices were homogenized using 50 mM Tris, pH 7.4, and centrifuged at 16,500 rpm for 10 min. The pellets were resuspended in fresh buffer and incubated at 37 °C for 30 min. Following incubation, the suspensions were centrifuged as before, the resulting pellets were resuspended in 100 volumes of 50 mM Tris, pH 7.4 plus 2 mg/mL bovine serum and the suspensions combined. Each assay tube contained 0.5 mL of membrane suspension, 2 nM [^3H]-DAMGO, and 0.02 mg/mL mixture in a total volume of 0.65 mL [13, 45, 53, 55].
as §1

[3] = biological target: T3, delta-opioid receptor (DOR) (Rattus norvegicus, UniProt P33533); assay: DOR radioligand competition binding assay ([3H]-DPDPE); conditions: Delta screening results
T3 construct: Rat cortices were homogenized using 50 mM Tris, pH 7.4, 10 mM MgCl2-6H2O, 200 µM PMSF; from tissue; host or cells: rat cortex membranes
Protocol: DOR binding assay: Rat cortices were homogenized using 50 mM Tris, pH 7.4, 10 mM MgCl2-6H2O, 200 µM PMSF, centrifuged and incubated as above. Each assay tube contained 2 nM [^3H]-DPDPE. Assay tubes were incubated for 2.5 h at 25 °C. Unlabeled DPDPE was used as a competitor to generate a standard curve and determine nonspecific binding.
as §1

[4] = experiment 1, unit inferred, read-out: Ki (Exp 1)
[5] = experiment 2, unit inferred, read-out: Ki (Exp 2)
[6] = mean of Exp 1 and Exp 2, unit inferred, read-out: MEAN (Ki)
[7] = mean of two experiments, read-out: Ki
[8] = first Ki column, unit not printed (apparently M), read-out: Ki (first column)
[9] = mean of both Ki, unit inferred, read-out: MEAN (Ki)
[10] = second Ki column, unit not printed (apparently M), read-out: Ki (second column)

SMILES	Ki [1, 4] [nM]	Ki [1, 5] [nM]	Ki [1, 6] [nM]	Ki [1, 7] [nM]	Ki [2, 4] [nM]	Ki [2, 5] [nM]	Ki [2, 6] [nM]	Ki [2, 7] [nM]	Ki [3, 8] [nM]	Ki [3, 9] [nM]	Ki [3, 7] [nM]	Ki [3, 10] [nM]
Cc1cc(O)cc(C)c1C[C@H]1CNC(=N)N1C[C@H](Cc1ccc(O)cc1)N1C[C@H](Cc2ccc(O)cc2)NC1=N [1968-54]	1460	1600	1530	1530	72.3	56.4	64.3	64	3550	3280	3280	3010
Cc1cc(O)cc(C)c1C[C@H]1CN([C@@H](Cc2ccc(O)cc2)CN2C(=N)NC[C@@H]2Cc2c(C)cc(O)cc2C)C(=N)N1 [1968-56]	736	1250	991	991	55	69.9	62.5	62	1330	1300	1300	1260
Cc1cc(O)cc(C)c1C[C@H]1CNC(=N)N1C[C@H](CC(C)C)N1C[C@H](Cc2ccccc2)NC1=N [1968-57]	371	679	525	525	59.6	74.1	66.8	67	1400	1240	1240	1070
Cc1cc(O)cc(C)c1C[C@H]1CNC(=N)N1C[C@H](CC(C)C)N1C[C@H](Cc2ccc(O)cc2)NC1=N [1968-58]	542	775	659	659	55.1	62	58.6	59	1150	896	896	638
Cc1cc(O)cc(C)c1C[C@H]1CNC(=N)N1C[C@H](CC(C)C)N1C[C@H](CC(C)C)NC1=N [1968-59]	223	313	268	268	166	156	161	161	3840	4210	4210	4580
Cc1cc(O)cc(C)c1C[C@H]1CN([C@@H](CC(C)C)CN2C(=N)NC[C@@H]2Cc2c(C)cc(O)cc2C)C(=N)N1 [1968-60]	308	422	365	365	66.4	71.2	68.8	69	978	814	814	651
Cc1cc(O)cc(C)c1C[C@H]1CNC(=N)N1C[C@H](Cc1c(C)cc(O)cc1C)N1C[C@H](Cc2ccccc2)NC1=N [1968-61]	877	1230	1050	1050	40.3	56.5	48.4	48	1060	1020	1020	985
Cc1cc(O)cc(C)c1C[C@H]1CNC(=N)N1C[C@H](Cc1c(C)cc(O)cc1C)N1C[C@H](Cc2ccc(O)cc2)NC1=N [1968-62]	2300	2340	2320	2320	64.2	78.4	71.3	71	1530	1280	1280	1020
Cc1cc(O)cc(C)c1C[C@H]1CNC(=N)N1C[C@H](Cc1c(C)cc(O)cc1C)N1C[C@H](CC(C)C)NC1=N [1968-63]	1640	1470	1550	1550	62.8	98.8	80.8	81	2270	2390	2390	2510
